Source: patent US7241763B2, “3-furanyl analogs of toxoflavine as kinase inhibitors” (priority 2002, dated 2007)
pIC50: −log10 of the molar value. Like-named read-outs stand apart in the source and are kept apart here.

What was measured:
A2780 cell = assay: Cytotox/survival of A2780 cell after 3 days; type: cell-based; conditions: Homo sapiens, read-out: Cytotox/survival of A2780 cell after 3 days - pIC50 values (converted)
Experimental: In an alternative assay, the growth inhibitory effect of the compounds was tested on the ovarian carcinoma cell line A2780 using art known cytotoxicity assays such as LIVE/DEAD (Molecular Probes) or MTT.

AKT3 [1] = target: T1, AKT3 (Homo sapiens, UniProt Q9Y243); assay: Cellular inhibition of AKT3 using an ELISA (AKT cel, Ex. C6); type: cell-based; design: endogenous in cells; host or cells: MDA-MB 231; conditions: for IC50: MDA-MB 231 cells, phosphorylated MAPK ELISA, 30 minutes with compound, read-out: AKT cel (Ex. C6): pIC50 values (converted)
T1 sequence (Q9Y243 whole entry): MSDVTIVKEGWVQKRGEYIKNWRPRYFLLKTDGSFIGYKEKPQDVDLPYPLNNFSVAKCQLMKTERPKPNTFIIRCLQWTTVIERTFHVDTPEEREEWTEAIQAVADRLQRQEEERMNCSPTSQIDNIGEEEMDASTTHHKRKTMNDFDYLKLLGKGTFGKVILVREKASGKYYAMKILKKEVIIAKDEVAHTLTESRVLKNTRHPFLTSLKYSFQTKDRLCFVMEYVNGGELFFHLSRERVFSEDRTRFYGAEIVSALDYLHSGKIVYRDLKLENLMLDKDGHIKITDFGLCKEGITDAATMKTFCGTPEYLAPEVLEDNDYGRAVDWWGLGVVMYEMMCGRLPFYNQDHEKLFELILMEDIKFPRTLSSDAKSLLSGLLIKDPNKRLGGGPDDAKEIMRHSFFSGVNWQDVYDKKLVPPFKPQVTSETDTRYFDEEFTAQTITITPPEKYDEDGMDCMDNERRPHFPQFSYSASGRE
Experimental: Cellular Inhibition of AKT3 using an ELISA
The human breast adenocarcinoma cell line (MDA-MB 231) was used in an phosphospecific antibody cell ELISA (PACE) to assess the inhibitory effect of the compounds on AKT3 mediated phosphorylation of mitogen-activated protein kinase (MAPK). In the experiments the MDA-MB 231 cells were serum starved for 24 hours (5% CO2; 37° C.). Subsequently, the cells are incubated at room temperature for 2 hours with 20 μM (in serum free medium) of the phosphatidylinositol 3-kinase inhibitor Ly294002 (Alexis, San Diego, Calif.) prior to the incubation for 30 minutes with the compounds at a final concentration ranging from 1 nM to 3 μM. After fixation (with 4.5% formaldehyde) for 20 minutes and washing with PBS (0.1M) the cells were successively incubated with for 5 minutes with 0.1% Triton X-100 in PBS, for 20 minutes with 0.6% H2O2 and 1 hour with a 2% BSA solution as blocking buffer. […] The OD (490–655 nm) reflected the amount of phosphorylated MAPK and the pIC50 of the compounds was based on their effect with respect to blanco (0.1% DMSO) or an internal reference compound treatment.

CDC25B = target: T2, CDC25B (Homo sapiens, UniProt P30305); assay: In vitro inhibition of CDC25B using the fluorogenic substrate 3-OMFP (CDC25B WT, Ex. C5); type: biochemical; conditions: for IC50: 3-OMFP substrate, 1 hour room temperature, read-out: CDC25B WT (Ex. C5): pIC50 values (converted)
T2 sequence (P30305 1-580): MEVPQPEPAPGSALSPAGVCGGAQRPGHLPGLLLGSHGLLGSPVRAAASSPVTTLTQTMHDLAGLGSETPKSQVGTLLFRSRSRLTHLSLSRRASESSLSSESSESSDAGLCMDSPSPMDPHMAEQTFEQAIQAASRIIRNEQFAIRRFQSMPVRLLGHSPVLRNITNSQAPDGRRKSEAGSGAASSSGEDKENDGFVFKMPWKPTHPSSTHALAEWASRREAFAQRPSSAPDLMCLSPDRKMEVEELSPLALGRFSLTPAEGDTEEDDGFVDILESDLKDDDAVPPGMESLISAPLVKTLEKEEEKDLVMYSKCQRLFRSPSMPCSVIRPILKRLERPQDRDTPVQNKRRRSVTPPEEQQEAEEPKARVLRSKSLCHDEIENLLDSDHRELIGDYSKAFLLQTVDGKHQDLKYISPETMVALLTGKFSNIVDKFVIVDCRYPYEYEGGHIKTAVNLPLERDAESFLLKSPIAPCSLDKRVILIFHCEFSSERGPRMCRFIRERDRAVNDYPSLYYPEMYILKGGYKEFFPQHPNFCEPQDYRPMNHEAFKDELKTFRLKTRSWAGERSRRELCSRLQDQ
Experimental: In Vitro Inhibition of CDC25B using the Fluorogenic Substrate 3-OMFP
CDC25B phosphatase activity is assessed using the fluorogenic substrate 3-O-methyl-flurorescein-phosphate (3-OMFP). The phosphatase-reaction is performed for 1 hour at room temperature in a black microtiter plate in a volume of 50 μl. The reaction mixture contains 4 μg/mlCDC25B, 15 μM (3-OMFP), 15 mM Tris, 50 mM NaCl, 1 mM DTT, 1 mM Na2EDTA at pH 8.0 and 0.1% DMSO solution at 10^−5 M and the hits are tested in the same conditions in a full dose/response from 10^−5, 3.10^−6, 10^−6 and 3.10^−7 M. The enzymatic activity is determined by measuring the fluorescent signal at 485 nm (ex.) and 538 (em.).

cdk4 = cdk4 (Homo sapiens, UniProt P11802); assay: In vitro inhibition of cdk4 using a scintillant proximity assay (CDK4 SPA, Ex. C1); type: biochemical; conditions: for IC50: GST-pRb substrate, 33P-ATP, room temperature 30 minutes, read-out: CDK4 SPA (Ex. C1): pIC50 values (converted)
Sequence of cdk4 (P11802 whole entry): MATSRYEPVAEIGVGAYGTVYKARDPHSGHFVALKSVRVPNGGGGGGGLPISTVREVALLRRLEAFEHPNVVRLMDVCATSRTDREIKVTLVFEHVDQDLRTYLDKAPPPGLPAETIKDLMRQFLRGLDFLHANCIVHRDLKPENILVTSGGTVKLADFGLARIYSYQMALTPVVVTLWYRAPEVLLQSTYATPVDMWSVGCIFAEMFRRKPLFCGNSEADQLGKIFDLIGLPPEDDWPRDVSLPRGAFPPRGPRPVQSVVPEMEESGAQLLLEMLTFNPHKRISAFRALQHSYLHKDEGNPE
Sequence of cdk4 (P24385 whole entry partner): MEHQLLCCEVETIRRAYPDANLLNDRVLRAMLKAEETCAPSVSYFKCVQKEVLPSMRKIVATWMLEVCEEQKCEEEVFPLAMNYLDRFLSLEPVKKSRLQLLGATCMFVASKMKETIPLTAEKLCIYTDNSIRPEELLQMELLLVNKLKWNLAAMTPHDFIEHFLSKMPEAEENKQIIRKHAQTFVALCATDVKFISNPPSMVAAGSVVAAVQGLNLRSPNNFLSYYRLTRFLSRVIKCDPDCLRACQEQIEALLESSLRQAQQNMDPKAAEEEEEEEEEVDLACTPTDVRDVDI
Experimental: In Vitro Inhibition of cdk4 using a Scintillant Proximity Assay
The scintillant proximity assay (SPA) is in general described in U.S. Pat. No. 4,568,649 (Amersham Pharmacia Biotech). In the present cdk4 SPA kinase reaction assay, a kinase substrate consisting of a fragment of the restinoblastoma protein (pRb) tagged with […] (GST), is incubated with the aforementioned protein in the presence of (^33P) radiolabeled ATP. (^33P) phosporylation of the substrate is subsequently measured as light energy emitted using glutathione-coated SPA beads (Amersham Pharmacia Biotech) by trapping and quantifying the binding of the GST tagged and radiolabeled restinoblastoma protein.
The CDK4 SPA kinase reaction is performed at room temperature for 30 minutes in a 96-well microtiter plate. For each of the tested compounds a full dose response —10^−5M to 3.10^−9M—has been performed. Flavopiridol was used as reference compound. The 100 μl reaction volume contains 50 mM Hepes, 10 mM NaF, 10 mM MgCl2, 1 mM Na3VO4 pH 7.5, 1.5 μg CDK4-cell lysate/well, 0.2 μM unlabeled ATP, 1.7 μg/well GST-pRb, 1.7 nM AT^33P and 1 μl of a DMSO solution. The reaction is stopped by diluting the reaction mixture ½ with 0.1 mM Na2EDTA, 0.1 mM non-labeled ATP, 0.05% Triton-X-100 and 10 mg/ml glutathion coated beads in PBS. The microtiterplates are centrifuges at 900 rpm for 10 minutes and the amount of phosphorylated (^33P) pRb is determined by counting (1 min/well) in a microtiterplate scintillation counter.

AKT3 [2] = target: T1, AKT3; assay: In vitro inhibition of AKT3 using a filter assay (AKT3 pep., Ex. C3); type: biochemical; conditions: for IC50: histone H2B substrate, filter assay, 25° C. 3 hrs, read-out: AKT3 pep. (Ex. C3): pIC50 values (converted)
Experimental: In Vitro Inhibition of AKT3 using a Filter Assay
In the present AKT3 filter assay, a kinase substrate consisting of a fragment of histone H2B, is incubated with the aforementioned protein in the presence of (^33P) radiolabeled ATP. The (^33P)phosporylated substrate binds to a phosphocellulose cation exchange filter, that can easily be removed from the incubation mixture and counted using a microplate scintillation counter.
AKT3 filter assays were performed at 25° C. for 3 hrs in the presence of 25 mM Hepes, pH 7.0, containing 15 mM MgCl2, 1 mM DTT Each assay was performed in a 100 μl reaction volume containing 111 nM AKT3 (diluted in 25 mM Hepes, pH 7.0, containing 15 mM MgCl2, 1 mM DTT) and the 2.5 μM Histone H2B and 2 nM ATP-P^32. The reaction was terminated by addition of 100 μl 75 mM H3PO4, 90 μl of the assay mixture was filtered through Phosphocellulose cation exchange paper. After five times washing with […] H3PO4, the filterpaper was counting in a microtiterplate scintillation counter.

[3] = 72 h, A2780 ovarian carcinoma cell line, 3 days

| SMILES | IC50 (A2780 cell; [3]) [nM] | IC50 (AKT3 [1]) [nM] | IC50 (CDC25B) [nM] | IC50 (cdk4) [nM] | IC50 (AKT3 [2]) [nM] | melting point [°C] | IC50 (A2780 cell; A2780, 72 h) [nM] | pIC50 (AKT3 [1]) | pIC50 (CDC25B) | pIC50 (cdk4) | pIC50 (AKT3 [2]) |
| --- | --- | --- | --- | --- | --- | --- | --- | --- | --- | --- | --- |
| Cn1c(=O)nc2n(C3CCCC3)nc(-c3ccc(-c4ccc(CO)cc4)o3)nc-2c1=O [Compound 31] | 74 | 277 | 13.8 | 137 | 44.3 | 182 |  |  |  |  |  |
| CC(C)n1nc(-c2ccc(-c3ccc(CN(C)CCO)cc3)o2)nc2c(=O)n(C)c(=O)nc1-2 [Compound 87] | 61.4 | 35.2 | 24.3 | 80.7 | 72.9 | 229 |  |  |  |  |  |
| Cn1c(=O)nc2n(C3CCCC3)nc(-c3ccc(-c4ccc(CN5CCN(S(N)(=O)=O)CC5)cc4)o3)nc-2c1=O [Compound 112] | 142 | 202 | 19.8 | 117 | 63.7 | > 250 |  |  |  |  |  |
| Cn1c(=O)nc2n(C3CCCC3)nc(-c3ccc(-c4ccc(OCCN5CCOCC5)cc4)o3)nc-2c1=O [Compound 117] |  |  |  |  |  | 173 | 178 | 6.09 | 7.72 | 6.54 | 7.31 |
| CN1CCN(C(=O)COc2ccc(-c3ccc(-c4nc5c(=O)n(C)c(=O)nc-5n(C5CCCC5)n4)o3)cc2)CC1 [Compound 119] | 48.1 | 470 | 17.6 | 129 | 54 | 252 |  |  |  |  |  |
| Cn1c(=O)nc2n(C3CCCC3)nc(-c3ccc(-c4ccc(CN5CCN(CCOCCO)CC5)cc4)o3)nc-2c1=O [Compound 121] | 137 | 406 | 12 | 161 | 57.3 | > 250 |  |  |  |  |  |
| Cn1c(=O)nc2n(C3CCCC3)nc(-c3ccc(-c4ccc(CNCc5cccnc5)cc4)o3)nc-2c1=O [Compound 122] | 70.5 | 123 | 14 | 91 | 30.9 | 205 |  |  |  |  |  |
| Cn1c(=O)nc2n(C3CCCC3)nc(-c3ccc(-c4ccc(CNC(CO)(CO)CO)cc4)o3)nc-2c1=O [Compound 126] | 1110 | 272 | 93.8 | 78.3 | 80.2 | 241 |  |  |  |  |  |
| Cn1c(=O)nc2n(C3CCCC3)nc(-c3ccc(-c4ccc(CN5CCCC5)cc4)o3)nc-2c1=O [Compound 131] | 61.7 | 71.8 | 18.6 | 51.9 | 91.4 | 218 |  |  |  |  |  |
| COC1CCN(Cc2ccc(-c3ccc(-c4nc5c(=O)n(C)c(=O)nc-5n(C5CCCC5)n4)o3)cc2)CC1 [Compound 132] | 87.7 | 58.3 | 20.2 | 78.5 | 47 | 220 |  |  |  |  |  |
| COCCN1CCN(Cc2ccc(-c3ccc(-c4nc5c(=O)n(C)c(=O)nc-5n(C5CCCC5)n4)o3)cc2)CC1 [Compound 133] | 119 | 67.8 | 11.6 | 112 | 61 | 186 |  |  |  |  |  |
| Cn1c(=O)nc2n(C3CCCC3)nc(-c3ccc(-c4ccc(CN(CCO)CCO)cc4)o3)nc-2c1=O [Compound 134] | 52.7 | 39.2 | 12.9 | 111 | 59.8 | 242 |  |  |  |  |  |
